Laboratory results from US7795261B2, “Substituted 1-piperidin-4-yl-4-pyrrolidin-3-yl-piperazine derivatives and their use as neurokinin antagonists” (Janssen Pharmaceutica NV, priority 2002, dated 2010).

Key:
NK1 = NK1 (Homo sapiens, UniProt P25103); assay: Signal transduction (ST), intracellular Ca++ (FLIPR), NK1 antagonistic activity; type: cell-based; details: read-out: pIC50 NK1 (converted)
Procedure: (§1) This test evaluates in vitro functional NK1 antagonistic activity. For the measurements of intracellular Ca^++ concentrations the cells were grown on 96-well (black wall/transparent bottom) plates from Costar for 2 days until they reached confluence. The cells were loaded with 2 μM Fluo3 in DMEM containing 0.1% BSA and 2.5 mM probenecid for 1 h at 37° C. They were washed 3× with a Krebs buffer (140 mM NaCl, 1 mM MgCl2×6H2O, 5 mM KCl, 10 mM glucose, 5 mM HEPES; 1.25 mM CaCl2; pH 7.4) containing 2.5 mM probenecid and 0.1% BSA (Ca^++-buffer). The cells were preincubated with a concentration range of antagonists for 20 min at RT and Ca^++-signals after addition of the agonists were measured in a Fluorescence Image Plate Reader (FLIPR from Molecular Devices, Crawley, England). The peak of the Ca^++-transient was considered as the relevant signal and the mean values of corresponding wells were analysed as described below.
The sigmoidal dose response curves were analysed by computerised curve-fitting, using the GraphPad Program. […] For antagonist responses the IC50-value was calculated using non-linear regression. […]

NK3 = biological target: T1, NK3 (Homo sapiens, UniProt P29371); assay: Signal transduction (ST), intracellular Ca++ (FLIPR), NK3; type: cell-based; details: read-out: pIC50 NK3 (converted)
T1 sequence (P29371 1-465): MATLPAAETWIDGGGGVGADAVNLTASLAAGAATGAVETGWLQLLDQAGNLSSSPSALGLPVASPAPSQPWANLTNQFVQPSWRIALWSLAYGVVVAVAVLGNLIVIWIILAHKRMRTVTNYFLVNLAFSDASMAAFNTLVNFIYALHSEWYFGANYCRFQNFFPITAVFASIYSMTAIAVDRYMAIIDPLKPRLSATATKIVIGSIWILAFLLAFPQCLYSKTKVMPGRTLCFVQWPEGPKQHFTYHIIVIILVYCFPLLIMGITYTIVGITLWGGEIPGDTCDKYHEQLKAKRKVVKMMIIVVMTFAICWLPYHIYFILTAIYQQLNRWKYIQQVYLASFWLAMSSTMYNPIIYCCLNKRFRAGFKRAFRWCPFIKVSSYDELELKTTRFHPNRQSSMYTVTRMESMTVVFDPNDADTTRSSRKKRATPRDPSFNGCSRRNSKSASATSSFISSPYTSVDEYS
Procedure: [The procedure below names another target; the source lists this target under the same test.] as §1
The sigmoidal dose response curves were analysed by computerised curve-fitting, using the GraphPad Program. […] For antagonist responses the IC50-value was calculated using non-linear regression.
The last columns indicates—without being limited therefore—for which the compounds might be most suitable. Of course, since for some neurokinin receptors no data was determined, it is obvious that these compounds might be attributed to another suitable use.

Chain of NK1 (P25103 whole entry): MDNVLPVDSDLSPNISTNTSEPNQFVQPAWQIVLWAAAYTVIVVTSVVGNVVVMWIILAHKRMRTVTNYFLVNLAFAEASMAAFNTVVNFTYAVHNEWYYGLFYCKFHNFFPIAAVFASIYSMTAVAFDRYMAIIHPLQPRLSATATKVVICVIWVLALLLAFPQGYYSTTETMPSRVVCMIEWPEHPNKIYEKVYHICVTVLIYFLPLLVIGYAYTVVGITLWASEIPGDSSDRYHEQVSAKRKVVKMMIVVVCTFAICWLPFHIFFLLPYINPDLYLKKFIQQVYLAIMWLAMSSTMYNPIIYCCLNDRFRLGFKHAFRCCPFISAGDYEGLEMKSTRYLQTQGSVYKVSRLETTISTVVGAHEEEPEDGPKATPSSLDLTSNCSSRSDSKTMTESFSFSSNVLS

| Structure (SMILES) | IC50 (NK1) [nM] | IC50 (NK3) [nM] |
| --- | --- | --- |
| COc1ccc2[nH]c(C(=O)N3CCC(N4CCN([C@H]5CCN(C(=O)c6cc(C(F)(F)F)cc(C(F)(F)F)c6)[C@H](Cc6ccccc6)C5)CC4)C3)cc2c1 (stereo partly drawn) [Compound 55] | 316 | 7940 |
| Cn1c(C(=O)N2CCC(N3CCN([C@H]4CCN(C(=O)c5cc(C(F)(F)F)cc(C(F)(F)F)c5)[C@H](Cc5ccccc5)C4)CC3)C2)cc2ccccc21 (stereo partly drawn) [Compound 57] | 126 | 3160 |
| O=C(c1cnc2ccccc2n1)N1CCC(N2CCN([C@H]3CCN(C(=O)c4cc(C(F)(F)F)cc(C(F)(F)F)c4)[C@H](Cc4ccccc4)C3)CC2)C1 (stereo partly drawn) [Compound 60] | 31.6 | 2510 |
| O=C(C1CCc2cc(F)ccc2O1)N1CCC(N2CCN([C@H]3CCN(C(=O)c4cc(C(F)(F)F)cc(C(F)(F)F)c4)[C@H](Cc4ccccc4)C3)CC2)C1 (stereo partly drawn) [Compound 61] | 31.6 | 6310 |
| O=C(c1cc2ccccc2o1)N1CCC(N2CCN([C@H]3CCN(C(=O)c4cc(C(F)(F)F)cc(C(F)(F)F)c4)[C@H](Cc4ccccc4)C3)CC2)C1 (stereo partly drawn) [Compound 62] | 63.1 | 3980 |
| O=C(c1cc2ccccc2s1)N1CCC(N2CCN([C@H]3CCN(C(=O)c4cc(C(F)(F)F)cc(C(F)(F)F)c4)[C@H](Cc4ccccc4)C3)CC2)C1 (stereo partly drawn) [Compound 63] | 126 | 3160 |
| COc1cc(CC(=O)N2CCC(N3CCN([C@H]4CCN(C(=O)c5cc(C(F)(F)F)cc(C(F)(F)F)c5)[C@H](Cc5ccccc5)C4)CC3)C2)cc(OC)c1OC (stereo partly drawn) [Compound 65] | 12.6 | 3160 |
| O=C(c1ccno1)N1CCC(N2CCN([C@H]3CCN(C(=O)c4cc(C(F)(F)F)cc(C(F)(F)F)c4)[C@H](Cc4ccccc4)C3)CC2)C1 (stereo partly drawn) [Compound 68] | 31.6 | 1580 |
| CC1(C(=O)N2CCC(N3CCN([C@H]4CCN(C(=O)c5cc(C(F)(F)F)cc(C(F)(F)F)c5)[C@H](Cc5ccccc5)C4)CC3)C2)CC1 (stereo partly drawn) [Compound 73] | 10 | 1580 |
| O=C(C1CCCC1)N1CCC(N2CCN([C@H]3CCN(C(=O)c4cc(C(F)(F)F)cc(C(F)(F)F)c4)[C@H](Cc4ccccc4)C3)CC2)C1 (stereo partly drawn) [Compound 74] | 20 | 501 |
| O=C(C1CCCO1)N1CCC(N2CCN([C@H]3CCN(C(=O)c4cc(C(F)(F)F)cc(C(F)(F)F)c4)[C@H](Cc4ccccc4)C3)CC2)C1 (stereo partly drawn) [Compound 97] | 10 | 2510 |
| O=C(C1COc2ccccc2O1)N1CCC(N2CCN([C@H]3CCN(C(=O)c4cc(C(F)(F)F)cc(C(F)(F)F)c4)[C@H](Cc4ccccc4)C3)CC2)C1 (stereo partly drawn) [Compound 98] | 12.6 | 5010 |
| O=C(C1COC2CCCCC2O1)N1CCC(N2CCN([C@H]3CCN(C(=O)c4cc(C(F)(F)F)cc(C(F)(F)F)c4)[C@H](Cc4ccccc4)C3)CC2)C1 (stereo partly drawn) [Compound 99] | 7.94 | 3160 |
| O=C(C(NCCO)c1ccccc1)N1CCC(N2CCN([C@H]3CCN(C(=O)c4cc(C(F)(F)F)cc(C(F)(F)F)c4)[C@H](Cc4ccccc4)C3)CC2)C1 (stereo partly drawn) [Compound 106] | 31.6 | 3980 |
| O=C(C(c1ccccc1)N1CCCC1)N1CCC(N2CCN(C3CCN(C(=O)c4cc(C(F)(F)F)cc(C(F)(F)F)c4)C(Cc4ccccc4)C3)CC2)C1 (stereo not drawn) [Compound 108] | 31.6 | 2510 |
| COC(C(=O)N1CCC(N2CCN(C3CCN(C(=O)c4cc(C(F)(F)F)cc(C(F)(F)F)c4)C(Cc4ccccc4)C3)CC2)C1)c1ccccc1 (stereo not drawn) [Compound 109] | 12.6 | 7940 |
| Cc1nccn1C(C(=O)N1CCC(N2CCN(C3CCN(C(=O)c4cc(C(F)(F)F)cc(C(F)(F)F)c4)C(Cc4ccccc4)C3)CC2)C1)c1ccccc1 (stereo not drawn) [Compound 110] | 20 | 5010 |
| O=C(C(c1ccccc1)n1cc(Br)cn1)N1CCC(N2CCN([C@H]3CCN(C(=O)c4cc(C(F)(F)F)cc(C(F)(F)F)c4)[C@H](Cc4ccccc4)C3)CC2)C1 (stereo partly drawn) [Compound 111] | 79.4 | 6310 |
| CC(C)(C)OC(=O)N1CCC(N2CCN(C3CCN(C(=O)c4cc(C(F)(F)F)cc(C(F)(F)F)c4)C(Cc4ccccc4)C3)CC2)C1 (stereo not drawn) [Compound 130] | 39.8 | 3160 |
| CN(C)C(=O)N1CCC(N2CCN([C@H]3CCN(C(=O)c4cc(C(F)(F)F)cc(C(F)(F)F)c4)[C@H](Cc4ccccc4)C3)CC2)C1 (stereo partly drawn) [Compound 145] | 12.6 | 2000 |

| Structure (SMILES) | IC50 (NK1) [nM] | IC50 (NK3) [nM] |
| --- | --- | --- |
| Cc1nnsc1C(=O)N1CCC(N2CCN(C3CCN(C(=O)c4cc(C(F)(F)F)cc(C(F)(F)F)c4)C(Cc4ccc(Cl)c(Cl)c4)C3)CC2)C1 (stereo not drawn) [Compound 161] | 12.6 | 3160 |
| O=C(c1snnc1CO)N1CCC(N2CCN(C3CCN(C(=O)c4cc(C(F)(F)F)cc(C(F)(F)F)c4)C(Cc4ccccc4)C3)CC2)C1 (stereo not drawn) [Compound 166] | 6.31 | 1580 |
| O=C(c1cccnc1Cl)N1CCC(N2CCN([C@H]3CCN(C(=O)c4cc(C(F)(F)F)cc(C(F)(F)F)c4)[C@H](Cc4ccccc4)C3)CC2)C1 (stereo partly drawn) [Compound 168] | 7.94 | 501 |
| COCC(=O)N1CCC(N2CCN(C3CCN(C(=O)c4cc(C(F)(F)F)cc(C(F)(F)F)c4)C(Cc4ccccc4)C3)CC2)C1 (stereo not drawn) [Compound 177] | 63.1 | 2510 |
| O=C(C1CCC1)N1CCC(N2CCN([C@H]3CCN(C(=O)c4cc(C(F)(F)F)cc(C(F)(F)F)c4)[C@H](Cc4ccccc4)C3)CC2)C1 (stereo partly drawn) [Compound 179] | 6.31 | 1580 |
| CC(=O)N1CCCC1C(=O)N1CCC(N2CCN([C@H]3CCN(C(=O)c4cc(C(F)(F)F)cc(C(F)(F)F)c4)[C@H](Cc4ccccc4)C3)CC2)C1 (stereo partly drawn) [Compound 187] | 15.8 | 5010 |
| O=C(C(=O)N1CCC(N2CCN([C@H]3CCN(C(=O)c4cc(C(F)(F)F)cc(C(F)(F)F)c4)[C@H](Cc4ccccc4)C3)CC2)C1)c1cccs1 (stereo partly drawn) [Compound 188] | 25.1 | 2000 |
| CC(C)(C)OC(=O)N1CCC[C@@H]1C(=O)N1CCC(N2CCN([C@H]3CCN(C(=O)c4cc(C(F)(F)F)cc(C(F)(F)F)c4)[C@H](Cc4ccccc4)C3)CC2)C1 (stereo partly drawn) [Compound 189] | 7.94 | 251 |
| N#Cc1ccccc1C(=O)N1CCC(N2CCN(C3CCN(C(=O)c4cc(C(F)(F)F)cc(C(F)(F)F)c4)C(Cc4ccccc4)C3)CC2)C1 (stereo not drawn) [Compound 195] | 12.6 | 398 |
| CC(=O)N1CCC(N2CCN([C@H]3CCN(C(=O)c4cc(C(F)(F)F)cc(C(F)(F)F)c4)[C@H](Cc4ccccc4)C3)CC2)C1 (stereo partly drawn) [Compound 198] | 31.6 | 2510 |
| CC(C)C(=O)N1CCC(N2CCN([C@H]3CCN(C(=O)c4cc(C(F)(F)F)cc(C(F)(F)F)c4)[C@H](Cc4ccccc4)C3)CC2)C1 (stereo partly drawn) [Compound 199] | 10 | 1580 |
| CC(C)(C)CC(=O)N1CCC(N2CCN([C@H]3CCN(C(=O)c4cc(C(F)(F)F)cc(C(F)(F)F)c4)[C@H](Cc4ccccc4)C3)CC2)C1 (stereo partly drawn) [Compound 200] | 7.94 | 398 |
| CN(C)CC(=O)N1CCC(N2CCN([C@H]3CCN(C(=O)c4cc(C(F)(F)F)cc(C(F)(F)F)c4)[C@H](Cc4ccccc4)C3)CC2)C1 (stereo partly drawn) [Compound 202] | 39.8 | 6310 |
| O=C(c1cc(C(F)(F)F)cc(C(F)(F)F)c1)N1CCC(N2CCN(C3CCN(C(=O)C(F)(F)F)C3)CC2)CC1Cc1ccccc1 (stereo not drawn) [Compound 203] | 20 | 1000 |
| O=C(c1cc(C(F)(F)F)cc(C(F)(F)F)c1)N1CCC(N2CCN(C3CCN(c4noc5ccccc45)C3)CC2)CC1Cc1ccccc1 (stereo not drawn) [Compound 204] | 25.1 | 2510 |
| O=C(CNc1ccccc1CO)N1CCC(N2CCN(C3CCN(C(=O)c4cc(C(F)(F)F)cc(C(F)(F)F)c4)C(Cc4ccccc4)C3)CC2)C1 (stereo not drawn) [Compound 207] | 20 | 3980 |
| O=C(Cn1cnc2ccccc21)N1CCC(N2CCN([C@H]3CCN(C(=O)c4cc(C(F)(F)F)cc(C(F)(F)F)c4)[C@H](Cc4ccccc4)C3)CC2)C1 (stereo partly drawn) [Compound 208] | 15.8 | 2510 |
| CC(C)(C)OC(=O)N1CCC(C(=O)N2CCC(N3CCN([C@H]4CCN(C(=O)c5cc(C(F)(F)F)cc(C(F)(F)F)c5)[C@H](Cc5ccccc5)C4)CC3)C2)CC1 (stereo partly drawn) [Compound 210] | 15.8 | 7940 |
| O=C([C@H]1CCCN1)N1CCC(N2CCN([C@H]3CCN(C(=O)c4cc(C(F)(F)F)cc(C(F)(F)F)c4)[C@H](Cc4ccccc4)C3)CC2)C1 (stereo partly drawn) [Compound 213] | 20 | 1580 |
